The target in test [1] is Receptor tyrosine-protein kinase erbB-2 (Homo sapiens, UniProt P04626). The test is described as follows: Inhibition of HER2.
Test [2] can be described thus: Inhibition of PDGFR.
For test [3], the target named is Vascular endothelial growth factor receptor 2 (Homo sapiens, UniProt P35968). The test can be described thus: Inhibition of VEGFR2.
For the next test, the target named is Bcr/Abl fusion protein (Homo sapiens, UniProt P00519). The test can be described thus: Inhibition of BCR-ABL p210. It is filed as protein assay.
Test [4] addresses T1, Insulin-like growth factor 1 receptor (Homo sapiens, UniProt P08069).
Description: Inhibition of IGF1R by cell based assay
Test [5] addresses T2, Insulin receptor (Homo sapiens, UniProt P06213).
Description: Inhibition of insulin receptor by cell based assay
Test [6] addresses Mast/stem cell growth factor receptor Kit (Homo sapiens, UniProt P10721).
Test [7] is described as follows: Selectivity for EGFR over HER2.
Test [8] has as its target T1, Insulin-like growth factor 1 receptor. This is another data set of the same source.
A short description of test [9]: Selectivity for HER2 over EGFR.
A short description of test [10]: Cytotoxicity against human RD1 cells. It is filed as functional, cell-based.
Test [11] in a line: Cytotoxicity against human MDA PCa 2b cells. Type of test: functional, cell-based.
Test [12] has as its target Epidermal growth factor receptor (Homo sapiens, UniProt P00533). The test can be described thus: Inhibition of HER1.
The nature of test [13]: Selectivity for insulin receptor over IGF1R.
Another test concerns COLO 205. The test can be described thus: Cytotoxicity against human COLO205 cells. Type of test: functional, cell-based.
The next test relates to MCF7. The test is described as follows: Cytotoxicity against human MCF7 cells. Type of test: functional, cell-based.
For a further test, the target named is Focal adhesion kinase 1 (Homo sapiens, UniProt Q05397).
For test [14], the target named is Tyrosine-protein kinase Lck (Homo sapiens, UniProt P06239).
Test [15] concerns the target T1, Insulin-like growth factor 1 receptor. The test can be described thus: Inhibition of IGF1R autophosphorylation in human MCF7 cells by Western blot analysis. Type of test: cell-based. A general note: A western blot detects proteins with antibodies after separation by electrophoresis.
Test [16] concerns the target T2, Insulin receptor. The test can be described thus: Inhibition of IRK.
Test [17] has as its target T1, Insulin-like growth factor 1 receptor. The test can be described thus: Displacement of fluorescent ATP competitive ligand from IGF1R.
The target is the same in test [18]. The source holds these as a separate data set.
Description: Inhibition of IGF1R by cell based assay
For test [19] the target is unchanged. The test can be described thus: Inhibition for IGF1R-induced S6 ribosomal protein phosphorylation in growth factor-stimulated NHDF.
Test [20] has the same target. The test is described as follows: Inhibition of IGF1R in growth factor-stimulated NHDF.
For test [21] the target is unchanged. The test can be described thus: Inhibition of IGF1R in human MCF7 cells by Western blot analysis. It is filed as cell-based.
The target is the same in test [22]. The test is described as follows: Inhibition of GST-tagged human IGF1R expressed in baculovirus-infected Sf21 cells by scintillation proximity assay. In general terms: In a scintillation proximity assay essentially only radioactivity close to the scintillant gives light.
For test [23] the target is unchanged. The test is described as follows: Inhibition of IGF1R in IGF1-stimulated human MCF7 cells by Western blot analysis. It is filed as cell-based.

The source of these data is ChEMBL document CHEMBL1152979, “Inhibition of the insulin-like growth factor-1 receptor (IGF1R) tyrosine kinase as a novel cancer therapy approach” (J Med Chem, 2009).

By IC50 is commonly meant the concentration that gives 50% inhibition. A low value points to higher potency.

T2 sequence (P06213 28-758 limits assumed): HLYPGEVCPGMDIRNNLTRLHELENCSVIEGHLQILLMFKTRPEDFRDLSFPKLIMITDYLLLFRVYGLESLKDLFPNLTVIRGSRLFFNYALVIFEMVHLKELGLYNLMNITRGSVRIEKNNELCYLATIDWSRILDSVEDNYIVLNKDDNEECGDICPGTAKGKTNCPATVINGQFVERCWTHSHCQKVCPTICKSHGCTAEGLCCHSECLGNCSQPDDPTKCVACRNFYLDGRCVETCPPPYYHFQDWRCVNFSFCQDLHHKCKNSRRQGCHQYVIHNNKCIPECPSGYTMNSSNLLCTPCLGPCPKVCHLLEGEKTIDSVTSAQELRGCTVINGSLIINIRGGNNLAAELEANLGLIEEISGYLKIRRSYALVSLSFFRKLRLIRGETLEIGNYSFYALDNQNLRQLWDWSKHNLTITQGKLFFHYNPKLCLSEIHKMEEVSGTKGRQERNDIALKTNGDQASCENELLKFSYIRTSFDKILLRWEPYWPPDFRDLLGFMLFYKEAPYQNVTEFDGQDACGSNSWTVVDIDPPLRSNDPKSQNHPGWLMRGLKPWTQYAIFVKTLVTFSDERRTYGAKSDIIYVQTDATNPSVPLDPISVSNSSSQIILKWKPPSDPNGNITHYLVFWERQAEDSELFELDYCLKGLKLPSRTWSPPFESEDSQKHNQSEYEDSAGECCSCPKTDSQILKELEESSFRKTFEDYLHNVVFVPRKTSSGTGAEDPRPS
T2 sequence (P06213 763-1382 limits assumed): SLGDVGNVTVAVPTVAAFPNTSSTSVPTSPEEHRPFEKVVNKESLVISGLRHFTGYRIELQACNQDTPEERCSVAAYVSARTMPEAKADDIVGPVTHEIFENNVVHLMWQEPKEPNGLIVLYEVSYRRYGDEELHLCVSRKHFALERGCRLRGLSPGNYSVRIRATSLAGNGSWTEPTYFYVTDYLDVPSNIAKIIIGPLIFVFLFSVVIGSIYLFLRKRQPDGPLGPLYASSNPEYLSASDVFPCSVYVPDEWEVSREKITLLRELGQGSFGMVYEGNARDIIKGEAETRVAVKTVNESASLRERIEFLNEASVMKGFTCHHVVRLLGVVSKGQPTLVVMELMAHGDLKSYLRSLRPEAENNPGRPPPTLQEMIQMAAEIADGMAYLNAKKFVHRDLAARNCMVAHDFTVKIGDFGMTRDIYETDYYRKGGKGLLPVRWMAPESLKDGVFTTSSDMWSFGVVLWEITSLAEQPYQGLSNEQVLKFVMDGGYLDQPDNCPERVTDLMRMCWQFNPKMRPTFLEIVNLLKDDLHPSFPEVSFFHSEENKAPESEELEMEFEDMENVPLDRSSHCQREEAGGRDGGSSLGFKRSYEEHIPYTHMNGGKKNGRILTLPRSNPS
T1 sequence (P08069 31-736 limits assumed): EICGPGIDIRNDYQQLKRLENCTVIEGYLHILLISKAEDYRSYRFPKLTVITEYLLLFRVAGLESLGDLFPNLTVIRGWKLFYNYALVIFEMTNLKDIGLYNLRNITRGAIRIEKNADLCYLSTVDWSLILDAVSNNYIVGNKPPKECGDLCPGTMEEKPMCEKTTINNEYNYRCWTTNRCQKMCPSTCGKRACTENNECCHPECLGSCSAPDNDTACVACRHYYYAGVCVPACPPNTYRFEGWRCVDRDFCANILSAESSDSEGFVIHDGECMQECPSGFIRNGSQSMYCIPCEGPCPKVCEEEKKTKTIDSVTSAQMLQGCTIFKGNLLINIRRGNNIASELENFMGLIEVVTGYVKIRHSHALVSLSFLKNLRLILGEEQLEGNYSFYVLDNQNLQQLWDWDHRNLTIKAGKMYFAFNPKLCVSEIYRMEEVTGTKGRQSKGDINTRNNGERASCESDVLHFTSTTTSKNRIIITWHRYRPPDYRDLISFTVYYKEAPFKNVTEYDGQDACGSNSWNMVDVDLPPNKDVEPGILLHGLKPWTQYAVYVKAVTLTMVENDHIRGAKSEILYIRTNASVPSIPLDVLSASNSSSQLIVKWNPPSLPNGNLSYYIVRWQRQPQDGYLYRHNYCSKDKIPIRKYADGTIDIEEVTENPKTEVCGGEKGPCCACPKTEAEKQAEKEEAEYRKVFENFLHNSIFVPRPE
T1 sequence (P08069 741-1367 limits assumed): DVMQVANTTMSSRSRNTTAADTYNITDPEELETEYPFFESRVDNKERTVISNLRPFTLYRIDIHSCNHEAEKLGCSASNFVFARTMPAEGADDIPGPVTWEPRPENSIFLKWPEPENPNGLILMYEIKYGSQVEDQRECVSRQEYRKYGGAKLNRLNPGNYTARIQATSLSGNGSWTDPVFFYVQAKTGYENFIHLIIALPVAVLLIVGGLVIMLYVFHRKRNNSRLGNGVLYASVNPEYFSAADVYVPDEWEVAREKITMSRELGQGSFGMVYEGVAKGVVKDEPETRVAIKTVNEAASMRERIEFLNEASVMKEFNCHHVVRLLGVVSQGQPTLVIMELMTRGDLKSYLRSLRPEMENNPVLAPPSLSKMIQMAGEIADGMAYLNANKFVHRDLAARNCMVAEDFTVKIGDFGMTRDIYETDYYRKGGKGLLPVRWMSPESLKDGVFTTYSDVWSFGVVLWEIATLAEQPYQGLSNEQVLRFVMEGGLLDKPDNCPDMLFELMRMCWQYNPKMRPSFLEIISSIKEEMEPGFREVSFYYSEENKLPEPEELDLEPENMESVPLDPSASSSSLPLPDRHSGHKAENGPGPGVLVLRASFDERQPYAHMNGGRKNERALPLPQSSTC
Chain of Mast/stem cell growth factor receptor Kit (P10721 whole entry): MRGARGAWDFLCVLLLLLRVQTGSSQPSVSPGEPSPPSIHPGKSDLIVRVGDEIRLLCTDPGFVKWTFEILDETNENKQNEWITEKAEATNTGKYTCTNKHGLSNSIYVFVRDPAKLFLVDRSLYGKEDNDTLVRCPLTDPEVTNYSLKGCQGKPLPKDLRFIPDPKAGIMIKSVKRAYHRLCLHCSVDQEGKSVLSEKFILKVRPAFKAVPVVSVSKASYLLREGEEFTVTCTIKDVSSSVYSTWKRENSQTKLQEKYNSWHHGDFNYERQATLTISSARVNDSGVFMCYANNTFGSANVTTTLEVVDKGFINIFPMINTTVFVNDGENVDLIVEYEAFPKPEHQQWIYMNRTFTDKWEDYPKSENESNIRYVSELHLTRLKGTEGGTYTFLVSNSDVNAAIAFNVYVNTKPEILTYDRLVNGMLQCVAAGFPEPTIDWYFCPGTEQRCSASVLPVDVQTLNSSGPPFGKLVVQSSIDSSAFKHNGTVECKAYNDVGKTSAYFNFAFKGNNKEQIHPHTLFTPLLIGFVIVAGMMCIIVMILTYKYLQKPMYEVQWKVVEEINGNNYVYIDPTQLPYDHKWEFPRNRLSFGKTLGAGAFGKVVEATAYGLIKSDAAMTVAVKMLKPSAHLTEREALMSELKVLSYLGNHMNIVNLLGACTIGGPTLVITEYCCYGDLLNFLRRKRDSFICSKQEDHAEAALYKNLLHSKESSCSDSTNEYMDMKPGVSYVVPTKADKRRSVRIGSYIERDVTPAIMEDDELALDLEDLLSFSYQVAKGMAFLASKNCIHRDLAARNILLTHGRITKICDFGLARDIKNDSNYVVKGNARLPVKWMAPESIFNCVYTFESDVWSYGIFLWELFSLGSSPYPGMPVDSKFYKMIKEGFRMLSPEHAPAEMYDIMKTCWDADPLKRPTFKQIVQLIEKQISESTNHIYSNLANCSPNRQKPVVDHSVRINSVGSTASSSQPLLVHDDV
Chain of Vascular endothelial growth factor receptor 2 (P35968 whole entry, the tested form may be a part): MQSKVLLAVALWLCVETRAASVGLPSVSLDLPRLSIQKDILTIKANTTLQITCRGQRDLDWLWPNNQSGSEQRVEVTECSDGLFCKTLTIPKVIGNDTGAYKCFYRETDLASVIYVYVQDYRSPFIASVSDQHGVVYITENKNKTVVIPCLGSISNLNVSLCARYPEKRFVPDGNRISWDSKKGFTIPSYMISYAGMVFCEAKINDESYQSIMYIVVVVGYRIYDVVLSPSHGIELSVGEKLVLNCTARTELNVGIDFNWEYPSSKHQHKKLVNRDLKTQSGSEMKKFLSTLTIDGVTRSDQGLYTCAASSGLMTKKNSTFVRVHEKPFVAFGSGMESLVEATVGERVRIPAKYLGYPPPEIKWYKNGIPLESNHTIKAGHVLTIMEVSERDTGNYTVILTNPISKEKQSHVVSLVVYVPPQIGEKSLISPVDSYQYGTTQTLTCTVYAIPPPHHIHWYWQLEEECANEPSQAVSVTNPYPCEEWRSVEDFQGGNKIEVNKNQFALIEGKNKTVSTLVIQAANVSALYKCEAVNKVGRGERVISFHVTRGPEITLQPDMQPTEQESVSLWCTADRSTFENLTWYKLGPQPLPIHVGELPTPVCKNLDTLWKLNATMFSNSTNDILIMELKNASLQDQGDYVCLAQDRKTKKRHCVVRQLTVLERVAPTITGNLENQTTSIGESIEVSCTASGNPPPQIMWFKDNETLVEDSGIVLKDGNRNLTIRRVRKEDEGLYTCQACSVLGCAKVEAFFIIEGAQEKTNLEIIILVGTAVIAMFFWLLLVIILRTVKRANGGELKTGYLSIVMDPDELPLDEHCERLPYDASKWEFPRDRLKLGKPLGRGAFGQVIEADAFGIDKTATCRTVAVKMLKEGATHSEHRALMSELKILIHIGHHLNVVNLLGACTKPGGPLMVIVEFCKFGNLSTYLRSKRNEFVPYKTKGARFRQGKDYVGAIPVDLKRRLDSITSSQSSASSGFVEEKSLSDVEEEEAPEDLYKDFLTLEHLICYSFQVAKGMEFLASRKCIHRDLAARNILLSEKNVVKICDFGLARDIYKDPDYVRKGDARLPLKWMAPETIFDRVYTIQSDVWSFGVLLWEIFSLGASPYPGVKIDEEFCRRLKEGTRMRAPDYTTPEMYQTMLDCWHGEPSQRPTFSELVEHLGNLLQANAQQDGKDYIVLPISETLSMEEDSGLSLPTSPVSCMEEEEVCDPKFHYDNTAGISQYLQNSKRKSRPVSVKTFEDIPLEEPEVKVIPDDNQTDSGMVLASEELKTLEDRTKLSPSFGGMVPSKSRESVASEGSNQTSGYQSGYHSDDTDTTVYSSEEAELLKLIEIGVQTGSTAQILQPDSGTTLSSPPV

On to `Nc1ncnc2c1c(-c1cccc(OCc3ccccc3)c1)cn2[C@H]1C[C@H](N2CCCC2)C1`, for which the half-maximal inhibitory concentration (IC50) in test [1] was over 10000 nM; in test [2] it was over 10000 nM; in [3], over 10000 nM; on Bcr/Abl fusion protein, over 10000 nM; in [4], 170 nM; on Insulin receptor [5], 2800 nM. In addition, the IC50 in test [6] is over 5000 nM.
On to `N#C/C(=C\c1ccc(O)c(O)c1)C(=O)NCc1ccccc1`, for which the Selectivity ratio in test [7] worked out at 100.
For `O=C(O[C@@H]1Cc2ccccc2O[C@@H]1c1cc(O)c(O)c(O)c1)c1cc(O)c(O)c(O)c1`, in test [8], the IC50 turned out to be 14000 nM.
Take `CC(C)(C)c1cc(/C=C(\C#N)C(N)=S)cc(C(C)(C)C)c1O`: in test [9], the Selectivity ratio turned out to be 1000.
The molecule `Cc1cc(N2CCOCC2)cc2[nH]c(-c3c(NC[C@H](O)c4ccccc4Cl)cc[nH]c3=O)nc12` returned a 50% inhibitory concentration (IC50) in [8] of 830 nM.
For `Cc1cc(N2CCOCC2)cc2[nH]c(-c3c(NC[C@@H](O)c4cccc(Cl)c4)cc[nH]c3=O)nc12`, the IC50 in [10] was 202 nM; in [11], 194 nM.
For `Nc1ncnc2c1c(-c1cccc(OCc3ccccc3)c1)cn2[C@H]1C[C@@H](CN2CCC2)C1` [AEW-541], the half-maximal inhibitory concentration (IC50) in [12] is over 10000 nM; against Bcr/Abl fusion protein, over 10000 nM; in test [6], over 5000 nM.
For `Nc1nccn2cnc(-c3ccc4ccc(-c5ccccc5)nc4c3C3CC(N4CC4)C3)c12` (configuration not stated), the Selectivity ratio in test [13] came out at 5. The molecule also had a 50% inhibitory concentration (IC50) in test [8] of 20 nM.
With `Cc1cc(N2CCN(CCC#N)CC2)cc2nc(-c3c(NC[C@@H](O)c4ccccc4Cl)cc[nH]c3=O)[nH]c12`, the IC50 in test [10] is 146 nM; in test [11], 188 nM; in the test with COLO 205, 120 nM; in the test on MCF7 it was 234 nM; against Focal adhesion kinase 1, 94 nM; in test [14] it was over 1500 nM.
As to `COc1ccc(Cl)cc1NC(=O)Nc1cc(C)nc2ccccc12`, in test [15], the IC50 was under 1000 nM.
With `CCOC(=O)c1[nH]c(C=O)c(C(=O)OCC)c1C`, the Activity on Insulin receptor [16] was determined as 12 µM; in [17], 2.7 µM; in test [18], 15 µM.
Take `CN1CCN(c2ccc(C(=O)Nc3n[nH]c4c3CN(S(=O)(=O)c3cc(F)cc(F)c3)CC4)cc2)CC1`: the half-inhibitory concentration (IC50) in test [19] was determined as 3050 nM; in test [20] it was 340 nM.
Molecule `CN1CCN(c2ccc(C(=O)Nc3n[nH]c4c3CN(S(=O)(=O)c3cc(F)cc(F)c3)CC4)c(NC(=O)c3ccc[nH]3)c2)CC1` showed an IC50 in test [21] of 80 nM.
Turning to `CCOC(=O)c1c(C=O)[nH]c(C(=O)OC(C)(C)C)c1CC`, the Activity is 2 µM at Insulin receptor [16], 0.49 µM in [17] and 5.3 µM in [18].
With `CN1CCN(c2ccc(C(=O)Nc3n[nH]c4c3CN(S(=O)(=O)c3cc(F)cc(F)c3)C4(C)C)cc2NC(=O)c2cc[nH]c2)CC1`, the values for the IC50 in [22] and in test [23] were 90 nM and 300 nM, respectively.
`N#C/C(=C\c1ccc(O)c(O)c1)C(=O)c1ccc(O)c(O)c1` registered an IC50 in test [8] of 61 nM.
